From patent US12077503B2, “Substituted cyclic amides and their use as herbicides” (FMC CORPORATION, priority 2015, dated 2024)

Key:
Assay type in all cases: in vivo
[1] = test system: pigweed (Amaranthus retroflexus); experiment: Test C preemergence; conditions: for Plant response rating, Pigweed: scale 0 to 100, 0 no effect, 100 complete control
Procedure, shortened: (§1)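 Visual rating, 0–100 scale (0 = no effect, 100 = complete control) versus controls, 13–15 d after treatment. Compounds in non-phytotoxic solvent plus surfactant; applied preemergence to seeds in loam/sand soil or postemergence to 1- to 4-leaf plants (2–18 cm) in peat/vermiculite medium; greenhouse-held.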

[2] = test system: crabgrass, large (large crabgrass, Digitaria sanguinalis); experiment: Test C preemergence; conditions: for Plant response rating, Crabgrass, Large: scale 0 to 100, 0 no effect, 100 complete control
Procedure, shortened: as §1

[3] = test system: nutsedge, yellow (yellow nutsedge, Cyperus esculentus); experiment: Test C preemergence; conditions: for Plant response rating, Nutsedge, Yellow: scale 0 to 100, 0 no effect, 100 complete control
Procedure, shortened: as §1

[4] = test system: lambsquarters (Chenopodium album); experiment: Test C preemergence; conditions: for Plant response rating, Lambsquarters: scale 0 to 100, 0 no effect, 100 complete control
Procedure, shortened: as §1

corn (Zea mays) = experiment: Test C preemergence; conditions: for Plant response rating, Corn: scale 0 to 100, 0 no effect, 100 complete control
Procedure, shortened: as §1

soybean (Glycine max) = experiment: Test C preemergence
Procedure, shortened: as §1

[5] = test system: Galium (catchweed bedstraw, Galium aparine); experiment: Test C preemergence; conditions: for Plant response rating, Galium: scale 0 to 100, 0 no effect, 100 complete control
Procedure, shortened: as §1

[6] = test system: ryegrass, Italian (Italian ryegrass, Lolium multiflorum); experiment: Test C preemergence; conditions: for Plant response rating, Ryegrass, Italian: scale 0 to 100, 0 no effect, 100 complete control
Procedure, shortened: as §1

[7] = test system: wheat (winter wheat, Triticum aestivum); experiment: Test C preemergence; conditions: for Plant response rating, Wheat: scale 0 to 100, 0 no effect, 100 complete control
Procedure, shortened: as §1

[8] = test system: waterhemp (common waterhemp, Amaranthus rudis); experiment: Test C preemergence; conditions: for Plant response rating, Waterhemp: scale 0 to 100, 0 no effect, 100 complete control
Procedure, shortened: as §1

[9] = test system: oilseed rape (Brassica napus); experiment: Test C preemergence; conditions: for Plant response rating, Oilseed Rape: scale 0 to 100, 0 no effect, 100 complete control
Procedure, shortened: as §1

[10] = test system: barnyardgrass (Echinochloa crus-galli); experiment: Test C preemergence; conditions: for Plant response rating, Barnyardgrass: scale 0 to 100, 0 no effect, 100 complete control
Procedure, shortened: as §1

[11] = test system: johnsongrass (Sorghum halepense); experiment: Test C preemergence; conditions: for Plant response rating, Johnsongrass: scale 0 to 100, 0 no effect, 100 complete control
Procedure, shortened: as §1

[12] = test system: morningglory (Ipomoea coccinea); experiment: Test C preemergence; conditions: for Plant response rating, Morningglory: scale 0 to 100, 0 no effect, 100 complete control
Procedure, shortened: as §1

[13] = test system: blackgrass (Alopecurus myosuroides); experiment: Test C preemergence; conditions: for Plant response rating, Blackgrass: scale 0 to 100, 0 no effect, 100 complete control
Procedure, shortened: as §1

[14] = test system: velvetleaf (Abutilon theophrasti); experiment: Test C preemergence; conditions: for Plant response rating, Velvetleaf: scale 0 to 100, 0 no effect, 100 complete control
Procedure, shortened: as §1

[15] = test system: ragweed (common ragweed, Ambrosia elatior); experiment: Test C preemergence; conditions: for Plant response rating, Ragweed: scale 0 to 100, 0 no effect, 100 complete control
Procedure, shortened: as §1

[16] = test system: ducksalad (Heteranthera limosa); experiment: Test C flooded paddy test; conditions: Flood; for Plant response rating (scale of 0 to 100), Ducksalad: 0 is no effect, 100 is complete control
Procedure, shortened: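 Test compounds were dosed straight into the flood water of pots holding 2-leaf-stage plants, with water kept 3 cm above the soil. Greenhouse plants were scored visually against controls after 13 to 15 d, from 0 (no effect) to 100 (complete control).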

[17] = 31 g ai/ha, 0 is no effect, 100 is complete control

What does the source list for `Cc1ccc(C2CN(C)C(=O)C2C(=O)Nc2ccccc2F)cc1F` (stereo not shown) [Compound 465]?
Plant response rating (scale of 0 to 100), Pigweed [1, 17]: 10; Plant response rating, Pigweed ([1]; 62 g ai/ha): 25; Plant response rating, Pigweed ([1]; 125 g ai/ha): 60; Plant response rating, Pigweed ([1]; 250 g ai/ha): 55; Plant response rating (scale of 0 to 100), Crabgrass, Large [2, 17]: 100; Plant response rating, Crabgrass, Large ([2]; 62 g ai/ha): 100; Plant response rating, Crabgrass, Large ([2]; 125 g ai/ha): 100; Plant response rating, Crabgrass, Large ([2]; 250 g ai/ha): 100; Plant response rating (scale of 0 to 100), Nutsedge, Yellow [3, 17]: 0; Plant response rating, Nutsedge, Yellow ([3]; 62 g ai/ha): 0; Plant response rating, Nutsedge, Yellow ([3]; 125 g ai/ha): 0; Plant response rating, Nutsedge, Yellow ([3]; 250 g ai/ha): 0; Plant response rating (scale of 0 to 100), Lambsquarters [4, 17]: 75; Plant response rating, Lambsquarters ([4]; 62 g ai/ha): 75; Plant response rating, Lambsquarters ([4]; 125 g ai/ha): 85; Plant response rating, Lambsquarters ([4]; 250 g ai/ha): 100; Plant response rating (scale of 0 to 100), Corn (corn (Zea mays); [17]): 40; Plant response rating, Corn (corn (Zea mays); 62 g ai/ha): 55; Plant response rating, Corn (corn (Zea mays); 125 g ai/ha): 65; Plant response rating, Corn (corn (Zea mays); 250 g ai/ha): 90; Plant response rating (scale of 0 to 100), Soybean (soybean (Glycine max); [17]): 5; Plant response rating, Soybean (soybean (Glycine max); 250 g ai/ha, scale 0 to 100, 0 no effect, 100 complete control): 15; Plant response rating (scale of 0 to 100), Galium [5, 17]: 80; Plant response rating, Galium ([5]; 62 g ai/ha): 85; Plant response rating, Galium ([5]; 125 g ai/ha): 90; Plant response rating, Galium ([5]; 250 g ai/ha): 98; Plant response rating (scale of 0 to 100), Ryegrass, Italian [6, 17]: 10; Plant response rating, Ryegrass, Italian ([6]; 62 g ai/ha): 70; Plant response rating, Ryegrass, Italian ([6]; 125 g ai/ha): 65; Plant response rating, Ryegrass, Italian ([6]; 250 g ai/ha): 65; Plant response rating (scale of 0 to 100), Wheat [7, 17]: 20; Plant response rating, Wheat ([7]; 62 g ai/ha): 70; Plant response rating, Wheat ([7]; 125 g ai/ha): 80; Plant response rating, Wheat ([7]; 250 g ai/ha): 95; Plant response rating (scale of 0 to 100), Waterhemp [8, 17]: 60; Plant response rating, Waterhemp ([8]; 62 g ai/ha): 70; Plant response rating, Waterhemp ([8]; 125 g ai/ha): 80; Plant response rating, Waterhemp ([8]; 250 g ai/ha): 80; Plant response rating (scale of 0 to 100), Oilseed Rape [9, 17]: 30; Plant response rating, Oilseed Rape ([9]; 62 g ai/ha): 10; Plant response rating, Oilseed Rape ([9]; 125 g ai/ha): 85; Plant response rating, Oilseed Rape ([9]; 250 g ai/ha): 90; Plant response rating (scale of 0 to 100), Barnyardgrass [10, 17]: 90; Plant response rating, Barnyardgrass ([10]; 62 g ai/ha): 95; Plant response rating, Barnyardgrass ([10]; 125 g ai/ha): 98; Plant response rating, Barnyardgrass ([10]; 250 g ai/ha): 100; Plant response rating (scale of 0 to 100), Johnsongrass [11, 17]: 10; Plant response rating, Johnsongrass ([11]; 62 g ai/ha): 65; Plant response rating, Johnsongrass ([11]; 125 g ai/ha): 80; Plant response rating, Johnsongrass ([11]; 250 g ai/ha): 85; Plant response rating (scale of 0 to 100), Morningglory [12, 17]: 5; Plant response rating, Morningglory ([12]; 62 g ai/ha): 20; Plant response rating, Morningglory ([12]; 125 g ai/ha): 25; Plant response rating, Morningglory ([12]; 250 g ai/ha): 50; Plant response rating (scale of 0 to 100), Blackgrass [13, 17]: 20; Plant response rating, Blackgrass ([13]; 62 g ai/ha): 50; Plant response rating, Blackgrass ([13]; 125 g ai/ha): 80; Plant response rating, Blackgrass ([13]; 250 g ai/ha): 90; Plant response rating (scale of 0 to 100), Velvetleaf [14, 17]: 15; Plant response rating, Velvetleaf ([14]; 62 g ai/ha): 5; Plant response rating, Velvetleaf ([14]; 125 g ai/ha): 55; Plant response rating, Velvetleaf ([14]; 250 g ai/ha): 65; Plant response rating (scale of 0 to 100), Ragweed [15, 17]: 0; Plant response rating, Ragweed ([15]; 62 g ai/ha): 60; Plant response rating, Ragweed ([15]; 125 g ai/ha): 75; Plant response rating, Ragweed ([15]; 250 g ai/ha): 80; Plant response rating, Ducksalad ([16]; 16 g ai/ha, scale 0 to 100 (0 no effect, 100 complete control), 13 to 15 d): 0; Plant response rating (scale of 0 to 100), Ducksalad ([16]; 31 g ai/ha): 45; Plant response rating (scale of 0 to 100), Ducksalad ([16]; 62 g ai/ha): 65; Plant response rating (scale of 0 to 100), Ducksalad ([16]; 125 g ai/ha): 90
